Data published in US10314308B2, “Microbiocidal benzoxaboroles” (SYNGENTA PARTICIPATIONS AG, priority 2015, dated 2019).

What was measured:
[1] = system: Sclerotinia Sclerotiorum; experiment: Sclerotinia sclerotiorum / liquid culture (cottony rot); assay type: cell-based; settings: PDB potato dextrose broth, 24° C., 3-4 days after application, read-out: disease control (inhibition of growth, visually)
Protocol: 17 Sclerotinia Sclerotiorum/Liquid Culture (Cottony Rot) Mycelia fragments of a newly grown liquid culture of the fungus were directly mixed into nutrient broth (PDB potato dextrose broth). After placing a (DMSO) solution of the test compounds into a microtiter plate (96-well format) the nutrient broth containing the fungal material was added. The test plates were incubated at 24° C. and the inhibition of growth was determined visually 3-4 days after application.

[2] = system: Mycosphaerella Graminicola(Septoria Tritici); experiment: Mycosphaerella graminicola (Septoria tritici) / liquid culture (Septoria blotch); assay type: cell-based; settings: Zymoseptoria tritici, PDB potato dextrose broth, 24° C., 4-5 days after application, read-out: disease control (inhibition of growth, photometrically)
Protocol: (§1) 12 Mycosphaerella Graminicola(Septoria Tritici)/Liquid Culture (Septoria Blotch) Conidia of the fungus from cryogenic storage were directly mixed into nutrient broth (PDB potato dextrose broth). After placing a DMSO solution of test compound into a 96-well microtiter plate, the nutrient broth containing the fungal spores was added. The test plates were incubated at 24° C. and the inhibition of growth was determined photometrically 4-5 days after application.

[3] = system: Fusarium Culmorum; experiment: microbe, parasite or virus in culture; assay type: cell-based; settings: read-out: disease control (inhibition of growth, photometrically)
[4] = system: Pythium Ultimum; experiment: Pythium ultimum / liquid culture (seedling damping off); assay type: cell-based; settings: Globisporangium ultimum, potato dextrose broth, 24° C., 2-3 days after application, read-out: disease control (inhibition of growth, photometrically)
[5] = system: Gaeumannomyces Graminis; experiment: Gaeumannomyces graminis / liquid culture (take-all of cereals); assay type: cell-based; settings: PDB potato dextrose broth, 24° C., 4-5 days after application, read-out: disease control (inhibition of growth, photometrically)
Protocol: 13 Gaeumannomyces Graminis/Liquid Culture (Take-all of Cereals) Mycelial fragments of the fungus from cryogenic storage were directly mixed into nutrient broth (PDB potato dextrose broth). After placing a DMSO solution of test compound into a 96-well microtiter plate, the nutrient broth containing the fungal spores is added. The test plates were incubated at 24° C. and the inhibition of growth was determined photometrically 4-5 days after application.

[6] = system: Mycosphaerella Arachidis(Cercospora Arachidicola); experiment: Mycosphaerella arachidis (Cercospora arachidicola) / liquid culture (early leaf spot); assay type: cell-based; settings: PDB potato dextrose broth, 24° C., 4-5 days after application, read-out: disease control (inhibition of growth, photometrically)
Protocol: as §1, with “11” for “12”, “Arachidis(Cercospora Arachidicola)/Liquid” for “Graminicola(Septoria Tritici)/Liquid”, “(Early Leaf Spot)” for “(Septoria Blotch)”

[7] = system: Monographella Nivalis(Microdochium Nivale); experiment: Monographella nivalis (Microdochium nivale) / liquid culture (foot rot cereals); assay type: cell-based; settings: PDB potato dextrose broth, 24° C., 4-5 days after application, read-out: disease control (inhibition of growth, photometrically)
Protocol: as §1, with “14 Monographella Nivalis(Microdochium Nivale)/Liquid” for “12 Mycosphaerella Graminicola(Septoria Tritici)/Liquid”, “(Foot Rot Cereals)” for “(Septoria Blotch)”

[8] = system: Glomerella Lagenarium(Colletotrichum Ladenarium); experiment: Glomerella lagenarium (Colletotrichum lagenarium) / liquid culture (anthracnose); assay type: cell-based; settings: PDB potato dextrose broth, 24° C., 3-4 days after application, read-out: disease control (inhibition of growth, photometrically)
Protocol: as §1, with “10 Glomerella Lagenarium(Colletotrichum Ladenarium)/Liquid” for “12 Mycosphaerella Graminicola(Septoria Tritici)/Liquid”, “(Anthracnose)” for “(Septoria Blotch)”, “measured” for “determined”, “3-4” for “4-5”

[9] = system: Botryotinia Fuckeliana(Botrytis Cinerea); experiment: Botryotinia fuckeliana (Botrytis cinerea) / liquid culture (gray mould); assay type: cell-based; settings: Vogels broth, 24° C., 3-4 days after application, read-out: disease control (inhibition of growth, photometrically)
Protocol: as §1, with “9 Botryotinia Fuckeliana(Botrytis Cinerea)/Liquid” for “12 Mycosphaerella Graminicola(Septoria Tritici)/Liquid”, “(Gray Mould)” for “(Septoria Blotch)”, “(Vogels” for “(PDB potato dextrose”, “3-4” for “4-5”

[10] = system: Plasmopara Viticola; experiment: whole plant or invertebrate; assay type: in vivo; settings: foliar, read-out: disease control
[11] = system: Thanatephorus Cucumeris(Rhizoctonia Solani); experiment: Thanatephorus cucumeris (Rhizoctonia solani) / liquid culture (foot rot, damping-off); assay type: cell-based; settings: PDB potato dextrose broth, 24° C., 3-4 days after application, read-out: disease control (inhibition of growth, photometrically)
Protocol: 16 Thanatephorus Cucumeris(Rhizoctonia Solani)/Liquid Culture (Foot Rot, Damping-Off) Mycelia fragments of a newly grown liquid culture of the fungus were directly mixed into nutrient broth (PDB potato dextrose broth). After placing a DMSO solution of the test compounds into a 96-well microtiter plate at an application rate of 200 ppm, the nutrient broth containing the fungal material was added. The test plates were incubated at 24° C. and the inhibition of growth was determined photometrically 3-4 days after application.

[12] = system: Phaeosphaeria Nodorum (Septoria Nodorum); experiment: Phaeosphaeria nodorum (Septoria nodorum) / wheat / leaf disc preventative (glume blotch); assay type: in vivo; settings: Parastagonospora nodorum, foliar, wheat leaf segments cv Kanzler, inoculated 2 days after application, assessed 5-7 days after application, read-out: disease control
Protocol: 5 Phaeosphaeria Nodorum (Septoria Nodorum)/Wheat/Leaf Disc Preventative (Glume Blotch) Wheat leaf segments cv Kanzler were placed on agar in a 24-well plate and sprayed with formulated test compound diluted in water. The leaf disks were inoculated with a spore suspension of the fungus 2 days after application. The inoculated test leaf disks were incubated at 20° C. and 75% relative humidity under a light regime of 12/12 h (light/dark) in a climate cabinet and the activity of a compound was assessed as percent disease control compared to untreated when an appropriate level of disease damage appears in untreated check leaf disks (5-7 days after application).

Compound | inhibition at 20 ppm [1] [%] | inhibition at 20 ppm [2] [%] | inhibition at 20 ppm [3] [%] | inhibition at 20 ppm [4] [%] | inhibition at 20 ppm [5] [%] | inhibition at 20 ppm [6] [%] | inhibition at 20 ppm [7] [%] | inhibition at 20 ppm [8] [%] | inhibition at 20 ppm [9] [%] | melting point [°C] | pest or weed control at 200 ppm [10] [%] | inhibition at 20 ppm [11] [%] | pest or weed control at 200 ppm [12] [%]
OCc1ccc(-c2cc3c(cc2Cl)COB3O)o1 [Compound 40] | ≥ 80 | ≥ 80 | ≥ 80 | ≥ 80 | ≥ 80 | ≥ 80 | ≥ 80 | ≥ 80 | ≥ 80 |  |  |  | 
OB1OCc2cc(F)c(-c3ccco3)cc21 [Compound 5] | ≥ 80 | ≥ 80 | ≥ 80 | ≥ 80 | ≥ 80 | ≥ 80 | ≥ 80 | ≥ 80 | ≥ 80 | 155 to 164 | ≥ 80 | ≥ 80 | 
OB1OCc2cc(Cl)c(-c3cncc(Cl)n3)cc21 [Compound 68] | ≥ 80 | ≥ 80 |  | ≥ 80 | ≥ 80 | ≥ 80 | ≥ 80 |  | ≥ 80 |  | ≥ 80 |  | ≥ 80
Cc1ccc(-c2cc3c(cc2Cl)COB3O)o1 [Compound 36] | ≥ 80 | ≥ 80 | ≥ 80 | ≥ 80 | ≥ 80 | ≥ 80 | ≥ 80 | ≥ 80 | ≥ 80 |  | ≥ 80 | ≥ 80 | 
OB1OCc2cc(Cl)c(-c3sccc3Br)cc21 [Compound 45] | ≥ 80 | ≥ 80 | ≥ 80 | ≥ 80 | ≥ 80 | ≥ 80 | ≥ 80 | ≥ 80 | ≥ 80 |  | ≥ 80 | ≥ 80 | 
Cc1nc(-c2cc3c(cc2F)COB3O)oc1C [Compound 32, 2-(5-fluoro-1-hydroxy-3H-2,1-benzoxaborol-6-yl)-4,5-dimethyl-oxazole] |  |  |  | ≥ 80 |  |  | ≥ 80 |  |  | 164 to 166 |  |  | 
O=Cc1ccc(-c2cc3c(cc2Cl)COB3O)o1 [Compound 21, 5-(5-chloro-1-hydroxy-3H-2,1-benzoxaborol-6-yl)furan-2-carbaldehyde] | ≥ 80 | ≥ 80 |  | ≥ 80 | ≥ 80 |  | ≥ 80 | ≥ 80 |  | 145 to 165 | ≥ 80 |  | 
ON=Cc1ccc(-c2cc3c(cc2Cl)COB3O)o1 (single isomer, unassigned) [Compound 22, 5-(5-chloro-1-hydroxy-3H-2,1-benzoxaborol-6-yl)furan-2-carbaldehyde oxime] |  |  |  | ≥ 80 |  |  | ≥ 80 | ≥ 80 |  | 188 to 193 |  |  | 
OB1OCc2cc(F)c(-c3ccoc3)cc21 [Compound 75] | ≥ 80 | ≥ 80 | ≥ 80 | ≥ 80 | ≥ 80 | ≥ 80 | ≥ 80 | ≥ 80 | ≥ 80 |  | ≥ 80 | ≥ 80 | 
OB1OCc2cc(Cl)c(-c3cocc3Br)cc21 [Compound 44] | ≥ 80 | ≥ 80 | ≥ 80 | ≥ 80 | ≥ 80 | ≥ 80 | ≥ 80 | ≥ 80 | ≥ 80 |  | ≥ 80 | ≥ 80 | 
OB1OCc2cc(Cl)c(-c3ccoc3)cc21 [Compound 84] | ≥ 80 | ≥ 80 | ≥ 80 | ≥ 80 | ≥ 80 | ≥ 80 | ≥ 80 | ≥ 80 |  |  | ≥ 80 | ≥ 80 | 
OB1OCc2cc(Cl)c(-c3cc4ccccc4[nH]3)cc21 [Compound 72] |  | ≥ 80 | ≥ 80 | ≥ 80 | ≥ 80 | ≥ 80 | ≥ 80 | ≥ 80 |  |  | ≥ 80 | ≥ 80 | 
OB1OCc2cc(Cl)c(-c3ccccn3)cc21 [Compound 8] | ≥ 80 | ≥ 80 | ≥ 80 | ≥ 80 |  | ≥ 80 |  | ≥ 80 | ≥ 80 |  | ≥ 80 |  | ≥ 80
COc1ncccc1-c1cc2c(cc1F)COB2O [Compound 81] | ≥ 80 | ≥ 80 |  | ≥ 80 | ≥ 80 | ≥ 80 | ≥ 80 | ≥ 80 |  |  | ≥ 80 |  | ≥ 80
Cn1nnc(-c2ccc3c(c2)B(O)OC3)n1 [Compound 31, 5-(1-hydroxy-3H-2,1-benzoxaborol-6-yl)-2-methyl-tetrazole] |  |  |  | ≥ 80 |  | ≥ 80 | ≥ 80 | ≥ 80 |  | 209 to 210 |  |  | 
OB1OCc2cc(F)c(-c3cncc(Cl)n3)cc21 [Compound 57] | ≥ 80 | ≥ 80 | ≥ 80 | ≥ 80 | ≥ 80 | ≥ 80 | ≥ 80 |  | ≥ 80 |  | ≥ 80 |  | ≥ 80
CCc1ccc(-c2cc3c(cc2Cl)COB3O)s1 [Compound 35] |  | ≥ 80 | ≥ 80 | ≥ 80 | ≥ 80 | ≥ 80 | ≥ 80 | ≥ 80 |  |  | ≥ 80 | ≥ 80 | 
